Results taken from PubChem BioAssay (NCI).
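Method: 48-hour compound exposure of cells in 96-well plates, five concentrations, linear interpolation of endpoints. TGI marks complete inhibition of growth.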

Legend:
Assay in all cases: NCI-60 cell line screen, 48 h
[1] = system: LOX IMVI melanoma
[2] = system: HCT-116 colon
[3] = system: HT29 colon
[4] = system: HCT-15 colon
[5] = system: BT-549 breast
[6] = system: HOP-92 NSCLC
[7] = system: CCRF-CEM leukemia
[8] = system: NCI-H522 lung
[9] = system: SNB-19 CNS
[10] = system: SK-MEL-2 melanoma
[11] = system: HS 578T breast
[12] = system: SF-295 CNS
[13] = system: NCI-H460 lung
[14] = system: SNB-75 CNS
[15] = system: SK-OV-3 ovarian
[16] = system: IGROV1 ovarian
[17] = system: HOP-62 NSCLC
[18] = system: MDA-MB-435
[19] = system: K-562 leukemia
[20] = system: MDA-N
[21] = system: DU-145 prostate
[22] = system: TK-10 renal
[23] = system: A549 NSCLC
[24] = system: CAKI-1 renal
[25] = system: NCI/ADR-RES ovarian
[26] = system: EKVX NSCLC
[27] = system: OVCAR-8 ovarian
[28] = system: SF-539 CNS
[29] = system: OVCAR-4 ovarian
[30] = system: 786-0 renal
[31] = system: SF-268 CNS
[32] = system: MALME-3M melanoma
[33] = system: OVCAR-3 ovarian
[34] = system: UACC-257 melanoma
[35] = system: OVCAR-5 ovarian
[36] = system: HCC-2998 colon
[37] = system: UACC-62 melanoma
[38] = system: ACHN renal
[39] = system: MDA-MB-231 breast
[40] = system: SW-620 colon
[41] = system: A498 renal
[42] = system: M14 melanoma
[43] = system: SK-MEL-28 melanoma
[44] = system: UO-31 renal
[45] = system: NCI-H23 lung
[46] = system: SN12C renal
[47] = system: MCF7 breast
[48] = system: T-47D breast
[49] = system: SK-MEL-5 melanoma
[50] = system: NCI-H226 lung
[51] = system: MOLT-4 leukemia
[52] = system: KM12 colon
[53] = system: RXF 393 renal
[54] = system: U251 CNS
[55] = system: COLO 205 colon
[56] = system: PC-3 prostate
[57] = system: RPMI-8226 leukemia
[58] = system: HL-60(TB) leukemia
[59] = system: SR leukemia

CC[C@]1(O)CC(OC2CC(N(C)C)C(O)C(C)O2)c2c(cc3c(c2O)C(=O)c2c(O)cccc2C3=O)[C@@H]1C(=O)OC (stereo partly drawn)
TGI [1]: 0.635 µM
TGI [2]: 10.4 µM
TGI [3]: 5.09 µM
TGI [4]: 2.75 µM
TGI [5]: 4.97 µM
TGI [6]: 1.51 µM
TGI [7]: 3.39 µM
TGI [8]: 1.65 µM
TGI [9]: 7.03 µM
TGI [10]: 1.82 µM
TGI [11]: 4.21 µM
TGI [12]: 3.31 µM
TGI [13]: 3.46 µM
TGI [14]: 1.42 µM
TGI [15]: 2.18 µM
TGI [16]: 3.21 µM
TGI [17]: 2.14 µM
TGI [18]: 1.44 µM
TGI [19]: 0.982 µM
TGI [20]: 1.92 µM
TGI [21]: 12.9 µM
TGI [22]: 5.07 µM
TGI [23]: 6.59 µM
TGI [24]: 0.377 µM
TGI [25]: 3.95 µM
TGI [26]: 3.86 µM
TGI [27]: 5.11 µM
TGI [28]: 2.51 µM
TGI [29]: 1.49 µM
TGI [30]: 5.58 µM
TGI [31]: 2.2 µM
TGI [32]: 1.01 µM
TGI [33]: 5.67 µM
TGI [34]: 1.88 µM
TGI [35]: 13.9 µM
TGI [36]: 1.54 µM
TGI [37]: 0.904 µM
TGI [38]: 0.963 µM
TGI [39]: 4.2 µM
TGI [40]: 3.95 µM
TGI [41]: 1.13 µM
TGI [42]: 2.07 µM
TGI [43]: 3.04 µM
TGI [44]: 0.635 µM
TGI [45]: 2.47 µM
TGI [46]: 6.85 µM
TGI [47]: 6.17 µM
TGI [48]: 5.54 µM
TGI [49]: 0.941 µM
TGI [50]: 2.17 µM
TGI [51]: 0.677 µM
TGI [52]: 3.2 µM
TGI [53]: 1.76 µM
TGI [54]: 5.57 µM
TGI [55]: 3.79 µM
TGI [56]: 1.8 µM

CC(C)(C)c1cc(CC2C(=O)c3ccccc3C2=O)cc(C(C)(C)C)c1O
TGI [1]: 16.2 µM
TGI [2]: 14.1 µM
TGI [3]: 13.8 µM
TGI [4]: 14.8 µM
TGI [5]: 18.1 µM
TGI [6]: 1.07 µM
TGI [7]: 40.7 µM
TGI [8]: 14.4 µM
TGI [9]: 12 µM
TGI [10]: 10.8 µM
TGI [11]: 39.8 µM
TGI [12]: 12.4 µM
TGI [13]: 43.3 µM
TGI [15]: 7.71 µM
TGI [16]: 26.4 µM
TGI [17]: 9.08 µM
TGI [18]: 20 µM
TGI [19]: 13.1 µM
TGI [20]: > 100 µM
TGI [21]: 14.7 µM
TGI [22]: 23.7 µM
TGI [23]: 87.2 µM
TGI [24]: 20.4 µM
TGI [25]: > 100 µM
TGI [26]: 28 µM
TGI [27]: 14.7 µM
TGI [28]: 16.7 µM
TGI [29]: > 100 µM
TGI [30]: 21.1 µM
TGI [31]: 17.1 µM
TGI [57]: 3.34 µM
TGI [33]: 9.53 µM
TGI [34]: 15.4 µM
TGI [35]: 57.6 µM
TGI [37]: 17.7 µM
TGI [38]: > 100 µM
TGI [39]: 7.74 µM
TGI [40]: 17.1 µM
TGI [58]: 6.69 µM
TGI [41]: 47.7 µM
TGI [42]: 11.6 µM
TGI [44]: 10.5 µM
TGI [59]: 16.6 µM
TGI [45]: > 100 µM
TGI [46]: 35.9 µM
TGI [47]: > 100 µM
TGI [49]: 11.1 µM
TGI [51]: 9.56 µM
TGI [52]: 19.1 µM
TGI [54]: 13.2 µM
TGI [55]: 30.7 µM
TGI [56]: 10.3 µM
